Reference: article PMC8398714, “Synthesis and Evaluation of Biological Activities of Bis(spiropyrazolone)cyclopropanes: A Potential Application against Leishmaniasis” (Molecules, 2021)
“Also recorded” adds a separate entry of the source. Where two headings read alike, the source gives them in different places.

Tests used:
PC-3 = assay: MTS cell viability assay on PC-3 cells; assay type: cell-based; conditions: Homo sapiens, 48 h; for inhibition at 100 µM: Dox 1 µM, mean ± SEM, NA = no activity, read-out: Percentage (%) of inhibition, PC-3; for IC50: 15-150 µM, mean ± SEM of triplicates
Description: (§1) Five tumor human cancer cell lines—cerebral astrocytoma (D-384), grade IV prostatic adenocarcinoma (PC-3), mammary adenocarcinoma (MCF-7), human colon carcinoma (RKO) and lung carcinoma (A-549)—along with one immortalized hamster cell line (CHO K-1) were used. The cells PC-3, MCF-7 and RKO were cultured in RPMI-1640, D-384 on DMEM and CHO K-1 on HAM F-12 medium supplemented with 10% fetal bovine serum (FBS, Invitrogen, Karlsruhe, Germany), 1% antibiotic-antimitotic solution (100 units/mL penicillin G, 100 µg/mL streptomycin, and 0.25 µg/mL amphotericin B, Gibco, Grand Island, NY, USA), and 1% L-glutamine (2 mM, Gibco). The cells were incubated at 37 °C in a 5% CO2 atmosphere. The viable cells were counted using the trypan blue exclusion method in a hemocytometer.
(§2) The MTS (5-[3-(carboxymethoxy)phenyl]-3-(4,5-dimethyl-2-thiazolyl)-2-(4-sulfo- phenyl)-2H-tetrazolium inner salt) cell viability assay was used to assess the inhibitory effects of the extracts on the survival of human cancer cell lines. A total of 3–5 × 10^3 cells/well were seeded into 96-well plates and were allowed to adhere for 24 h. […] Each concentration/assay was performed three times. Dimethyl sulfoxide (DMSO) was used as a negative control at a final concentration of 0.1% v/v, and 1 µM Doxorubicin was used as a positive control. The cells were incubated with the treatments for 48 h, after which 20 µL MTS (5 mg/mL, Aqueous One Solution Reagent, Gibco) was added and further incubated for 4 h at 37 °C. The absorbance was measured at 570 nm. The data obtained with cells treated with DMSO were defined to represent 100% viability.

[1] = tested on: promastigotes of Leishmania mexicana; assay: Leishmanicidal activity, MTT assay on promastigotes; assay type: cell-based; conditions: for SI (Selectivity Index) = Citotoxic activity/Leishmanicidal activity: CC50 RAW / IC50 L. mexicana; for IC50: Leishmania mexicana
Description: The leishmanicidal activity of all compounds was evaluated by measuring promastigotes’ mitochondrial activity using MTT colorimetric assay as described previously. In this study, promastigotes from Leishmania mexicana were used. The species were confirmed by amplifying and sequencing cytochrome b gene. Promastigotes were cultured at 25 °C in Schneider’s Drosophila Medium (Gibco, Invitrogen, Carlsbad, CA, USA) supplemented with 10% fetal bovine serum (Eurobio, Les Ulis, France). The medium was renewed every third day. Parasite density was determined by counting the cells using a Neubauer chamber.
Into each well of a 96-well plate were dispensed 1 × 10^6 parasites/well. A stock solution of the compounds was prepared in DMSO (Sigma Aldrich, Saint Louis, MO, USA), and serial dilutions were added to the parasite suspension, leading to concentrations ranging from 100 to 0.001 µM, keeping the solvent concentration at 0.5%. The final volume was 200 µL for each well and triplicate conditions were carried out. Amphotericin B (Gibco) treatment (1 µM) untreated parasites and DMSO 0.5% were used as positive and negative controls, respectively. After exposure to the compounds for 48 h in culture medium, 20 µL of a solution of 5 mg/mL MTT dissolved in PBS were added to each well. The plate was incubated at 25 °C for 2 h in darkness. The plate was then centrifuged at 4400 rpm for 10 min and the culture medium was then aspirated; 50 µL of DMSO were added into each well to solubilize the formazan crystals and the plate was shaken for 5 min and then it was measured by recording changes in absorbance at 570 nm using a microplate reader Cytation 5 (BioTek) spectrophotometer. A reference wavelength of 630 nm was used as background subtraction. Optical densities were analyzed because the quantity of formazan is directly proportional to the number of viable parasites. Data were analyzed with the statistical software GraphPad Prism 7.02 (GraphPad Software, Corp.).

CHO-K1 = assay: MTS cell viability assay on immortalized CHO-K1 cells; assay type: cell-based, hamster; conditions: 48 h, Dox 1 µM, mean ± SEM, NA = no activity, read-out: Percentage (%) of inhibition, CHO-K1
Description: as §1, §2

[2] = tested on: Leishmania mexicana cells; assay: Comet assay of Leishmania mexicana cells; assay type: cell-based; set-up: Comet tail length, mean (vary) / Comet tail length, median (Q50): unit not given here; conditions: L. mexicana, 24 h at MIC; for Comet tail length, mean (vary) / Comet tail length, median (Q50): MMS 0.011%, Kruskal-Wallis $means; for Genotoxic effect (DNA breaks) in comet assay: in words
Description: We quantified DNA breaks by a comet assay to determine if these compounds are genotoxic. Here, L. mexicana cells were exposed for 24 h to MIC concentrations previously determined (see Materials and Methods Section) for each compound. Figure 1 represents the measurements obtained for tail length. All compounds generated DNA breaks expect 4s. […] Samples with DMSO and MMS (0.011%) were included as controls. Some representative pictures are shown at Figure S4. The effect of 4p could not be determined because the cells appear to be very damaged. The data was subjected via a Kruskal–Wallis one-way ANOVA (Statistical Analyses S2). […] These observations support a mechanism of action through the generation of DNA damage.
For leishmania, a method previously described for yeast was adapted. Briefly, after incubating the cells in presence of the compounds for 24 h, cells were collected and washed with buffer S (1 M sorbitol, 25 mM KH2PO4 in ultrapure water and adjust to pH 6.5 with NaOH). The pellet was resuspended in 400 µL of 1.5% LMA and 40 µL was spread (second layer) onto previously agarose-coated slides (first layer).
Slides were immersed in cold lysis buffer (30 mM NaOH, 1 M NaCl, 0.05 % (w/v) lauroylsarcosine, 50 mM EDTA, and 10 mM Tris–HCl, pH 10) for 25 min and then in cold electrophoresis alkaline buffer (30 mM NaOH, 10 mM EDTA, and 10 mM Tris–HCl, pH 10). They were then subjected to electrophoresis at 26V and 300 mA. Slides were immersed in neutralization buffer (10 mM Tris–HCl, pH 7.4; prepared in advance and stored at 4 °C) for 10 min at room temperature. The cells were then treated with proteinase K (20 min, 37 °C in humid chamber), followed by a new neutralization step. To dehydrate the slides, they were immersed in EtOH 90% and EtOH absolute for 10 min each. Finally, the slides were stained with Sybr Gold 1X.
The DNA migration was analyzed using a LEICA microscope with fluorescence (40×) by scoring 100 cells per slide in duplicate. The tail moment parameter was then analyzed by the Comet Score software.

[3] = read-out: IC50 original values, x.1 (Mean)
[4] = L. mexicana promastigotes, 48 h, MTT, read-out: Leishmanicidal Activity IC50

Structure (SMILES) | inhibition at 100 µM (PC-3) [%] | IC50 (PC-3) [nM] | SI (Selectivity Index) = Citotoxic activity/Leishmanicidal activity [1] | IC50 [1, 3] [nM] | IC50 [1, 4] [nM] | inhibition at 100 µM (CHO-K1) [%] | Comet tail length, mean (vary) [2] | Comet tail length, median (Q50) [2] | Genotoxic effect (DNA breaks) in comet assay [2]
CC1=NN(c2ccccc2)C(=O)[C@@]12C(c1ccc(C(F)(F)F)cc1)[C@@]21C(=O)N(c2ccccc2)N=C1C (relative stereo) [4r, (5R*,6R*)-11-(4-Trifluoromethylphenyl)-4,10-dimethyl-2,8-diphenyl-2,3,8,9-tetraazadispiro[4.0.4.1]undeca-3,9-diene-1,7-dione] | 54.7 ± 1.95 | 49800 ± 5510 | 34.2 | 188 | 190 ± 60 | 4.74 ± 3.04 | 96310000 | 98500000 | 
CC1=NN(c2ccccc2)C(=O)[C@@]12C(c1ccc(OC(F)(F)F)cc1)[C@@]21C(=O)N(c2ccccc2)N=C1C (relative stereo) [4s, (5R*,6R*)-11-(4-Trifluoromethoxyphenyl)-4,10-dimethyl-2,8-diphenyl-2,3,8,9-tetraazadispiro[4.0.4.1]undeca-3,9-diene-1,7-dione] | 49.7 ± 2.11 | 70300 ± 1900 | 45.3 | 189 | 190 ± 70 |  | 39720000 | 39500000 | weakest
COc1ccc(C2[C@@]3(C(=O)N(c4ccccc4)N=C3C)[C@]23C(=O)N(c2ccccc2)N=C3C)cc1 (relative stereo) [4e, (5R*,6R*)-11-(4-Methoxyphenyl)-4,10-dimethyl-2,8-diphenyl-2,3,8,9-tetraazadispiro[4.0.4.1]undeca-3,9-diene-1,7-dione] | 17.9 ± 3.4 |  | 4.9 | 1480 | 1480 ± 250 |  | 65120000 | 64500000 | 
CC1=NN(c2ccccc2)C(=O)[C@@]12C(c1cccc(F)c1)[C@@]21C(=O)N(c2ccccc2)N=C1C (relative stereo) [4t, (5R*,6R*)-11-(3-Fluorophenyl)-4,10-dimethyl-2,8-diphenyl-2,3,8,9-tetraazadispiro[4.0.4.1]undeca-3,9-diene-1,7-dione] | 13.8 ± 2.87 |  | 12.3 | 216 | 220 ± 50 | 5.08 ± 2.84 | 124410000 | 116000000 | biggest genotoxic effects
CSc1ccc(C2[C@]3(C(=O)N(c4ccccc4)N=C3C)[C@@]23C(=O)N(c2ccccc2)N=C3C)cc1 (relative stereo) [4u, (5R*,6R*)-11-(4-Thiomethylphenyl)-4,10-dimethyl-2,8-diphenyl-2,3,8,9-tetraazadispiro[4.0.4.1]undeca-3,9-diene-1,7-dione] | 38.7 ± 3.77 |  | 22.1 | 417 | 420 ± 250 | 5.76 ± 3.65 | 179560000 | 177500000 | highest genotoxic activity; also recorded: strongest effects
CC1=NN(c2ccccc2)C(=O)[C@@]12C(c1ccccc1[N+](=O)[O-])[C@@]21C(=O)N(c2ccccc2)N=C1C (relative stereo) [4c, (5R*,6R*)-11-(2-Nitrophenyl)-4,10-dimethyl-2,8-diphenyl-2,3,8,9-tetraazadispiro[4.0.4.1]undeca-3,9-diene-1,7-dione] | 11 ± 3.5 |  | 15.3 | 150 | 150 ± 40 | 2.62 ± 2.2 | 70710000 | 72500000 | 
CC1=NN(c2ccccc2)C(=O)[C@@]12C(c1ccccc1)[C@@]21C(=O)N(c2ccccc2)N=C1C (relative stereo) [4b, (5R*,6R*)-4,10-Dimethyl-2,8,11-triphenyl-2,3,8,9-tetraazadispiro[4.0.4.1]undeca-3,9-diene-1,7-dione] | 17.6 ± 2.83 |  | 21.3 | 158 | 160 | 5.76 ± 3.08 | 50400000 | 55000000 | 
COC(=O)c1ccc(C2[C@@]3(C(=O)N(c4ccccc4)N=C3C)[C@]23C(=O)N(c2ccccc2)N=C3C)cc1 (relative stereo) [4q, (5R*,6R*)-Methyl-4[4,10-dimethyl-2,8-diphenyl-2,3,8,9-tetraazadispiro[4.0.4.1]undeca-3,9-diene-1,7-dione-11-yl]benzoate] | 50.5 ± 2.38 | 109000 ± 2770 | 14.3 | 277 | 280 ± 40 | 2.29 ± 2.6 | 172025000 | 177500000 | highest genotoxic activity; also recorded: strongest effects
CC1=NN(c2ccccc2)C(=O)[C@@]12C(c1ccc([N+](=O)[O-])cc1)[C@@]21C(=O)N(c2ccccc2)N=C1C (relative stereo) [4k, (5R*,6R*)-11-(4-Nitrophenyl)-4,10-dimethyl-2,8-diphenyl-2,3,8,9-tetraazadispiro[4.0.4.1]undeca-3,9-diene-1,7-dione] | 46.7 ± 3.78 | 83180 ± 450 | 11.0 | 295 | 300 ± 90 |  | 142780000 | 128000000 | biggest genotoxic effects; also recorded: strongest effects
